{"source": "patent US20200261534A1", "about": "“NEW TREATMENTS OF MULTIPLE MYELOMA” (priority 2017, published 2020)", "assay_type_in_all_cases": "cell-based", "key": {"[1]": {"system": "RPMI-8266, lymphoblast (myeloma)", "assay": "MTT viability assay, RPMI-8266", "description": "RPMI-8266, lymphoblast (myeloma), ATCC® CCL155™\nAll cell lines were cultured in incubator at 37° C. in RPMI-1640 (Sigma R8758) medium with 10% of fetal bovine serum inactivated (FBS) and 2 mM glutamine (Sigma G7513). During the amplification step cells were centrifuged and transferred into the culturing medium. Cells were counted in a Neubauer chamber after labelling with Tripan-Blue.\n(§1) Cells were seeded at a density of 10000 cells/well in 100 μl of medium in 96 well plates. After 24 h, the compounds to be tested were added to calculate the dose/response curve at the starting concentration of 100 μM with serial dilutions (1:1). Controls are the untreated cells. Each experiment was performed in triplicate.\n(§2) Cells were incubated with the peptidomimetic compound (S09) at the indicated concentrations during 24-72 h in incubator under CO2 atmosphere at 37° C. Then, cell viability was measured by means of MTT (3-(4,5-dimethylthiazol-2-yl)-2,5-diphenyltetrazolium bromide) assay. Stock solution of MTT (475989 Calbiochem) was 5 mg/ml in PBS. 1×.10 μl/well of MTT solution were added and the plate was incubated for 3-4 hr. The medium was discarded and 100 μl of extracting buffer (PBS 1×, 15% SDS, 50% […] N,N-Dimethylformamide, pH 4.7) were added to each well. Plates were incubated for 16 h at room temperature under orbital shaking. Absorbance at 570 nm was finally measured. As negative control (experiment noise) 3 wells were treated with 20 μl/well of a solution of SDS 10% in H2O.\nData analysis was performed calculating the percentage of cell viability normalized vs. the values of negative control, which was considered equal to 100%. The dose/response curve was fitted through the sigmoidal equation dose-response (variable slope) and the IC50 values were calculated as follow:\nY=Bottom+(Top−Bottom)/(1+10^{[(LogIC50−X)*HillSlope]},\nAll cell lines were cultured in incubator at 37° C. in RPMI-1640 (Sigma R8758) medium with 10% of fetal bovine serum inactivated (FBS) and 2 mM glutamine (Sigma G7513).\nas §1, with “of 10,000” for “of 10000”, “of 40” for “of 100”\nas §2, with “compounds” for “compound (S09)”"}, "[2]": {"system": "HL-60, promyeloblast (acute myelocytic leukemia, AML)", "assay": "MTT viability assay, HL-60", "description": "(§3) HL-60, promyeloblast (acute myelocytic leukemia, AML), ECACC: 98070106 […] During the amplification step and the assays adherent cells were rinsed with DPBS (Dulbecco's Phosphate Buffered Saline, Sigma D1283) three times and afterward treated for 5 minutes with trypsin ([…]) (Gibco-BRL, 15400054) in solution of DPBS at 37° C., and, once detached, transferred in the culturing medium. No-adherent cells were centrifuged and transferred in the culturing medium. Cells were counted in a Neubauer chamber after labelling with Tripan-Blue. […] Cells were seeded at a density of 10000 cells/well in 100 μl of medium in 96 well plates. […] Controls are the untreated cells. Each experiment was performed in triplicate. Cells were incubated with the compounds at the indicated concentrations during 24-72 h in incubator under CO2 atmosphere at 37° C. […] Stock solution of MTT (475989 Calbiochem) was 5 mg/ml in PBS. 1×.10 μl/well of MTT solution were added and the plate was incubated for 3-4 hr. […] Plates were incubated for 16 h at room temperature under orbital shaking. Absorbance at 570 nm was finally measured. […] The dose/response curve was fitted through the sigmoidal equation dose-response (variable slope) and the IC50 values were calculated as follow: Y=Bottom+(Top−Bottom)/(1+10^{[(LogIC50−X)*HillSlope]},"}, "[3]": {"system": "RAMOS, B lymphocyte (Burkitt's Lymphoma)", "assay": "MTT viability assay, RAMOS", "description": "as §3, with “RAMOS, B lymphocyte (Burkitt's Lymphoma), ATCC: CRL-1596” for “HL-60, promyeloblast (acute myelocytic leukemia, AML), ECACC: 98070106”"}}, "note": "Like-named read-outs stand apart in the source and are kept apart here. Starred links: 1 amine or outer side, 2 acyl side, 3 side chain; linkers in the order of their positions; H or OH if unused. Positions of bridges follow the written chain, without caps; N, C: chain ends. Non-standard residues stand in square brackets, D forms with d. Residues, ends and D or L forms follow the SMILES beside them. No end group written: not given here. ξ: configuration not given here. Biphenyl(4,4'-CH2)2 = c1cc(-c2ccc(C[*:2])cc2)ccc1C[*:1]; ξαMeNle(6-ylidene) = CC(CCCC=[*:3])(N[*:1])C(=O)[*:2]; X1 = CC(CCCCCCC=[*:3])(N[*:1])C(=O)[*:2]; Octanediyl(1,8) = C(CCCC[*:2])CCC[*:1]; ξC = NC(CS)C(=O)O", "data": [{"compound": "CC[C@H](C)[C@H](NC(=O)[C@H](Cc1ccc(O)cc1)NC(=O)[C@H](C)NC(=O)C1CSCCCCCCCCSCC(NC(=O)[C@H](CCCCN)NC(=O)[C@@H]2CCCN2C(=O)[C@H](C)N)C(=O)N[C@@H](C(C)C)C(=O)N[C@@H]([C@@H](C)CC)C(=O)N[C@@H](CC(C)C)C(=O)N[C@@H](CCCCN)C(=O)N[C@@H](CCCCN)C(=O)N[C@@H](C)C(=O)N1)C(=O)N[C@@H](CC(C)C)C(=O)N[C@@H](CO)C(=O)O", "note": "(stereo partly drawn) [IDP-P1708160] (H-APK[ξC]VILKKA[ξC]AYILS-OH; linker 4-11 via Octanediyl(1,8); N-terminus and C-terminus assumed)", "values": [{"measurement": "IC50", "setting": "[1]; 24 h", "value": 15, "unit": "µM"}, {"measurement": "IC50", "setting": "[1]; 72 h", "value": 15, "unit": "µM"}]}, {"compound": "CC[C@H](C)[C@H](NC(=O)[C@H](Cc1ccc(O)cc1)NC(=O)[C@H](C)NC(=O)[C@@H]1CSCc2ccc(cc2)-c2ccc(cc2)CSC[C@H](NC(=O)[C@H](CCCCN)NC(=O)[C@@H]2CCCN2C(=O)[C@H](C)N)C(=O)N[C@@H](C(C)C)C(=O)N[C@@H]([C@@H](C)CC)C(=O)N[C@@H](CC(C)C)C(=O)N[C@@H](CCCCN)C(=O)N[C@@H](CCCCN)C(=O)N[C@@H](C)C(=O)N1)C(=O)N[C@@H](CC(C)C)C(=O)N[C@@H](CO)C(=O)O", "note": "[IDP-P1708161] (H-APKCVILKKACAYILS-OH; linker 4-11 via Biphenyl(4,4'-CH2)2; N-terminus and C-terminus assumed)", "values": [{"measurement": "IC50", "setting": "[1]; 24 h", "value": 5, "unit": "µM"}, {"measurement": "IC50", "setting": "[1]; 72 h", "value": 7.5, "unit": "µM"}]}, {"compound": "CC[C@H](C)[C@H](NC(=O)[C@H](Cc1ccc(O)cc1)NC(=O)[C@H](C)NC(=O)C1(C)CCCC=CCCCCCCC(C)(NC(=O)[C@H](CCCCN)NC(=O)[C@@H]2CCCN2C(=O)[C@H](C)N)C(=O)N[C@@H](C(C)C)C(=O)N[C@@H]([C@@H](C)CC)C(=O)N[C@@H](CC(C)C)C(=O)N[C@@H](CCCCN)C(=O)N[C@@H](CCCCN)C(=O)N[C@@H](C)C(=O)N1)C(=O)N[C@@H](CC(C)C)C(=O)N[C@@H](CO)C(=O)O", "note": "(stereo partly drawn) [S09, APKXVILKKAXAYILS—OH] (H-APK[X1]VILKKA[ξαMeNle(6-ylidene)]AYILS-OH; staple 4-11; N-terminus assumed)", "values": [{"measurement": "IC50", "setting": "[2]; HL-60, MTT, incubation 24-72 h, Table 3, read-out: IC50 values", "value": "3.5 ± 0.2", "unit": "µM"}, {"measurement": "IC50", "setting": "[2]; HL-60, same protocol as Example 2, Table 6, read-out: Compound (IC50)", "value": "3.5 ± 0.2", "unit": "µM"}, {"measurement": "IC50", "setting": "[3]; Ramos, MTT, incubation 24-72 h, Table 3, read-out: IC50 values", "value": "~28", "unit": "µM"}, {"measurement": "IC50", "setting": "[3]; Ramos, same protocol as Example 2, Table 6, read-out: Compound (IC50)", "value": "~28", "unit": "µM"}, {"measurement": "IC50", "setting": "[1]; RPMI, MTT, 24-72 h, Table 7, read-out: IC50 values in μM for S09", "value": 7.4, "unit": "µM"}]}, {"compound": "CC[C@H](C)[C@H](NC(=O)[C@H](Cc1ccc(O)cc1)NC(=O)[C@H](C)NC(=O)C1(C)CCCC=CCCCCCCC(C)(NC(=O)[C@H](CCCCN)NC(=O)[C@@H]2CCCN2C(=O)[C@H](C)N)C(=O)N[C@@H](C(C)C)C(=O)N[C@@H]([C@@H](C)CC)C(=O)N[C@@H](Cc2ccccc2)C(=O)N[C@@H](CCCCN)C(=O)N[C@@H](CCCCN)C(=O)N[C@@H](C)C(=O)N1)C(=O)N[C@@H](CC(C)C)C(=O)N[C@@H](CO)C(=O)O", "note": "(stereo partly drawn) [S14, APKXVIFKKAXAYILS—OH] (H-APK[X1]VIFKKA[ξαMeNle(6-ylidene)]AYILS-OH; staple 4-11; N-terminus assumed)", "values": [{"measurement": "IC50", "setting": "[2]", "value": "7.8 ± 0.4", "unit": "µM"}, {"measurement": "IC50", "setting": "[3]", "value": 55, "unit": "µM"}, {"measurement": "IC50", "setting": "[1]; 24 h", "value": 10, "unit": "µM"}, {"measurement": "IC50", "setting": "[1]; 72 h", "value": 10, "unit": "µM"}]}, {"compound": "RQIKIWFQNRRMKWKKNELKRAFAALRDQI [Int-HI-S6A-F8, reference compound]", "values": [{"measurement": "IC50", "setting": "[2]", "value": "> 100", "unit": "µM"}, {"measurement": "IC50", "setting": "[3]", "value": "> 100", "unit": "µM"}]}]}
